The test system of one series is L-02 cells. In words: Cytotoxicity against normal liver cell line L-02. The format is cell-based. The method, then:
(§1) Cell lines were purchased from Servicebio (Wuhan, China) and cultured in RPMI1640 (Servicebio, Wuhan, China) with 10% foetal bovine serum and 1% antibiotic agent (Servicebio, Wuhan, China) at 37 °C. With the treatment of synthetic compounds, cells were cultured for 48 h and added with MTT solution (Servicebio, Wuhan, China). After 4 h, medium was removed and DMSO was added to culture for 30 min. Finally, the absorbance value was obtained by a microplate reader (Multiskan Sky, Thermo Fisher, Shanghai, China).

The subject of another series is tubulin. In words: Inhibitory activity of tubulin polymerisation in vitro. The following applies: fluorescence intensity. The format is biochemical.
The next series deals with SNU-475. In words: MTT antiproliferative assay, SNU-475 cells. The following applies: Homo sapiens, 48 h. The format is cell-based. (In general: Tetrazolium assays rely on reduction of a dye to a coloured formazan, in cell work by metabolically active cells.)
In the next series the test system is HepG-2. In words: MTT antiproliferative assay, HepG-2 cells. The format is cell-based. The following applies: for IC50: Homo sapiens, HepG2, 48 h, MTT. The protocol: as §1
(§2) In order to discover the potent anti-liver cancer agents, all tertiary sulphonamide analogues were evaluated for their anticancer activity in vitro against liver cancer cell lines ([…], HepG-2 and Bel-7402). Cell lines were treat with different tertiary sulphonamide derivatives 16 and 17a∼17f for 48 h to obtain IC50 values. In this work, 5-fluorouracil as an well-known antitumor drug was selected as the control agent.

For another series, the system named is Bel-7402. As to the kind of experiment: MTT antiproliferative assay, Bel-7402 cells. The format is cell-based. The following applies: Homo sapiens, 48 h. The method, then: as §1, §2
The target of the next series is LSD1 (Homo sapiens, UniProt O60341). In words: LSD1 enzymatic assay. The following applies: for inhibition at 0.2 µM: read-out: inhibitory rate against LSD1.
Series [1] has as its system interphase microtubules in Bel-7402 cells. In words: Immunofluorescence of interphase microtubules in Bel-7402 cells. The format is cell-based. The following applies: 50 nM. The method, then:
Liver cancer Bel-7402 cells were cultured on the slices for 24 h and treated with tertiary sulphonamide derivatives for 48 h. Then, Bel-7402 cells were fixed by 4% paraformaldehyde solution (Shanghai Yuanye Bio-Technology Co., Ltd, Shanghai, China) for 30 min. Bovine albumin was used to block the system for 30 min. Bel-7402 cells were cultured with β-tubulin and incubated for 24 h at 4 °C. Finally, 4′,6-diamidino-2-phenylindole (DAPI) was added in a dark room to obtain images of immunostaining (Confocal laser scanning microscope, FV3000RS, Beijing, China).

The next series concerns Bel-7402&shControl cells. In words: Cell viability of control Bel-7402 cells. The format is cell-based.
The test system of the next series is Bel-7402 cells. As to the kind of experiment: Transwell migration assay. The format is cell-based. The following applies: 48 h. The method, then:
Liver cancer Bel-7402 cells were cultured in the upper chambers of a Transwell 24-well plate (Servicebio, Wuhan, China) for 24 h. 1% FBS and 20% FBS were added into the upper chambers and lower chambers respectively. […] Then, all medium was removed and Bel-7402 cells were fixed with ethanol for 30 min. Finally, Bel-7402 cells from the upper chambers were stained with haematoxylin solution (Servicebio, Wuhan, China) for 30 min.
(§3) LSD1 could specifically demethylate mono- and dimethyl-lysine on histone H3 H3K9me1/2), leading to the transcriptional repression or activation of target genes. Thus, the expression levels of H3K9me1/2 in liver cancer Bel-7402 cells were explored with the treatment of 17a. […] The migration effects of tertiary sulphonamide derivative 17a were also investigated.

A further series has as its system Bel-7402 xenograft. In words: Bel-7402 xenograft antitumour study. The following applies: 60 mg/kg, intragastric administration, 21 days.
For series [2], the system named is heart, liver, spleen, lung and kidney. In words: Haematoxylin & eosin staining of organs of treated mice. The following applies: 60 mg/kg, intragastric, 21 days, H&E staining.
Experimental: (§4) Xenograft models using Bel-7402 cells was established in nude mice (Jiangsu ALF Biotechnology Co., LTD, Jiangsu, China). Then, mice-bearing tumours were divided into two groups (vehicle and 60 mg/kg group). […] Tumour volume and tumour weight of treated mice were measured.
(§5) Xenograft tumours were produced by the subcutaneous implantation of liver cancer Bel-7402 cells.
Series [3] has as its system H3K9me1/2 in Bel-7402 cells. In words: Western blot of H3K9me1 and H3K9me2 in Bel-7402 cells. The format is cell-based. The following applies: 48 h. The protocol:
Liver cancer Bel-7402 cells were cultured for 24 h and treated with tertiary sulphonamide derivative 17a for 48 h at 37 °C. Protein lysates were harvested from the treated Bel-7402 cells. Nitrocellulose membrane was used to perform polyacrylamide gelelectrophoresis. H3K9me1 and H3K9me2 (Servicebio, Wuhan, China) were treated with the nitrocellulose membrane at 4 °C for 12 h. GAPDH as the secondary antibody was incubated for 1 h at room temperature (Shanghai Yuanye Bio-Technology Co., Ltd, Shanghai, China).
as §3
A general note: In western blotting, separated proteins are transferred to a membrane and probed.

“Also recorded” adds a separate entry of the source.

Experimental for Bel-7402 xenograft: as §4, §5

In the case of `CCN1CCN(C(=S)SCCN(c2cc(OC)c(OC)c(OC)c2)S(=O)(=O)c2ccc(OC)cc2)CC1` [Compound 17b, 2-((4-Methoxy-N-(3,4,5-trimethoxyphenyl)phenyl)sulfonamido)ethyl-4-ethylpiperazine-1-carbodithioate], the melting point (as a rule, the temperature of the solid-liquid transition) fell in the range of 150 to 152 °C. The “cytotoxicity against L-02 cells” value in the series with L-02 cells was over 64 µM. Inhibition in the series with tubulin was half-maximal at 2.13 µM (IC50). Further, the IC50 – broadly, the concentration needed to halve the response being measured – in the series with SNU-475 was 2.35 ± 0.7 µM. Also, the “fold activity increase against HepG-2 cells” value in the series on HepG-2 (17b VS. 17c) is reported as “over 8 fold”. For the same molecule, it took 1.03 ± 0.28 µM to reach half-maximal inhibition in the series with HepG-2 (IC50). In the series on Bel-7402, this molecule gave an IC50 of 1.37 ± 0.16 µM. The molecule also returned an IC50 against LSD1 of 0.127 µM. Besides, the “depolymerisation of interphase microtubules” value (from here on “depolymerisation”) in series [1] is given as “more pronounced depolymerisation effects”.
Take `COc1ccc(S(=O)(=O)N(CCSC(=S)N2CCN(C(=O)OC(C)(C)C)CC2)c2cc(OC)c(OC)c(OC)c2)cc1` [Compound 17f, Tert-butyl-4-(((2-((4-methoxy-N-(3,4,5-trimethoxyphenyl)phenyl)sulfonamido)ethyl)thio)carbonothioyl)piperazine-1-carboxylate]: the melting point lay within 162 to 164 °C. Half-maximal inhibition in the series on tubulin (IC50) was put at 3.07 µM. In the series with SNU-475, this molecule yielded an IC50 of 4.46 ± 1.38 µM. In the series with HepG-2, this molecule came in with an IC50 of 6.67 ± 1.25 µM. Moreover, the half-inhibitory concentration (IC50) in the series on Bel-7402 stood at 2.32 ± 1.63 µM. Moreover, at LSD1, the IC50 was over 0.2 µM and the inhibition at 0.2 µM is 35.7%. Moreover, the “depolymerisation” value in series [1] is “moderately depolymerised interphase microtubules”.
Take `COc1ccc(S(=O)(=O)N(CCSC(=S)N2CCN(C)CC2)c2cc(OC)c(OC)c(OC)c2)cc1` [Compound 17a, 2-((4-Methoxy-N-(3,4,5-trimethoxyphenyl)phenyl)sulfonamido)ethyl-4-methylpiperazine-1-carbodithioate]: the “cytotoxicity against L-02 cells” value in the series on L-02 cells was over 64 µM. Moreover, the “cell viability of Bel-7402&shControl cells” value in the series on Bel-7402&shControl cells is given as “potently inhibited the cell viability”. Besides, the IC50 with SNU-475 worked out at 0.73 ± 0.16 µM; with HepG-2 it was 0.57 ± 0.07 µM; with Bel-7402, 0.32 ± 0.08 µM. The “migration of Bel-7402 cells” value in the series with Bel-7402 cells is given as “concentration-dependently inhibited migration; also recorded: significantly inhibited the migration”. For the same molecule, in the series on Bel-7402 xenograft, the “reduction of tumour weight” value turned out to be 42.97%. Also, the tumour growth entry in the series with Bel-7402 xenograft is “effectively inhibited the tumour growth in vivo”. The “toxicity of organs (heart, liver, spleen, lung and kidney)” value in series [2] is listed as “no apparent toxicity of organs”. Also, in [3], the “expression levels of H3K9me1 and H3K9me2” value was “increased the expression levels of H3K9me1 and H3K9me2”. In addition, the “depolymerisation” value in series [1] is “more pronounced depolymerisation effects”.
`COc1ccc(S(=O)(=O)N(CCSC(=S)N2CCN(C(C)=O)CC2)c2cc(OC)c(OC)c(OC)c2)cc1` [Compound 17d, 2-((4-Methoxy-N-(3,4,5-trimethoxyphenyl)phenyl)sulfonamido)ethyl-4-acetylpiperazine-1-carbodithioate] gave a melting point of 152 to 154 °C. For the same molecule, the midpoint of inhibition in the series with tubulin, the IC50, lay at 1.78 µM. In addition, the IC50 in the series with SNU-475 is 5.06 ± 0.68 µM. Also, the IC50 with HepG-2 came out at 3.29 ± 0.84 µM. Also, the IC50 in the series on Bel-7402 amounted to 1.58 ± 1.02 µM. For the same molecule, at LSD1, the IC50 is over 0.2 µM and the inhibition at 0.2 µM turned out to be 46%. The “fold activity loss against LSD1” value at LSD1 (methyl group replaced with acetyl group (17d VS. 17f as printed)) was “over 3 fold”.
As to `O=c1[nH]cc(F)c(=O)[nH]1` [5-Fluorouracil, reference compound], the IC50 in the series on SNU-475 was found to be 26.47 ± 0.16 µM; in the series with HepG-2 it was 12.2 ± 0.68 µM; with Bel-7402, 15.1 ± 1.28 µM.
Turning to `COc1ccc(S(=O)(=O)N(CCBr)c2cc(OC)c(OC)c(OC)c2)cc1` [Compound 16, N-(2-bromoethyl)-4-methoxy-N-(3,4,5-trimethoxyphenyl)benzenesulfonamide], the melting point was in the range of 116 to 118 °C. Moreover, the IC50 with SNU-475 was over 20 µM. The IC50 in the series on HepG-2 is over 20 µM. This molecule also had an IC50 in the series with Bel-7402 of over 20 µM.
In turn, `COc1ccc(S(=O)(=O)N(CCSC(=S)N2CCN(CCO)CC2)c2cc(OC)c(OC)c(OC)c2)cc1` [Compound 17c, 2-((4-Methoxy-N-(3,4,5-trimethoxyphenyl)phenyl)sulfonamido)ethyl-4–(2-hydroxyethyl)piperazine-1-carbodithioate] yielded a melting point of 146 to 148 °C. Further, the IC50 in the series on SNU-475 came out at 10.8 ± 1.01 µM. The IC50 in the series on HepG-2 was 9.17 ± 2.18 µM. The molecule also registered an IC50 in the series with Bel-7402 of 7.09 ± 1.33 µM.
For `COc1ccc(S(=O)(=O)N(CCSC(=S)N2CCN(c3ccc(F)cc3)CC2)c2cc(OC)c(OC)c(OC)c2)cc1` [Compound 17e, 2-((4-Methoxy-N-(3,4,5-trimethoxyphenyl)phenyl)sulfonamido)ethyl-4–(4-fluorophenyl)piperazine-1-carbodithioate] the same measures were 166 to 168 °C, 6.17 ± 1.05 µM, 7.57 ± 0.96 µM and 9.18 ± 1.32 µM.
